From PMC6271282, “Playing with Opening and Closing of Heterocycles: Using the Cusmano-Ruccia Reaction to Develop a Novel Class of Oxadiazolothiazinones, Active as Calcium Channel Modulators and P-Glycoprotein Inhibitors” (Molecules, 2014)

Experiments:
[1] = biological target: T1, L-type Ca2+ channel (LTCC, Cav1.2) (Rattus norvegicus, UniProt P22002); assay: whole-cell patch clamp, IBa(L); also potentiates [3H]diltiazem binding in rat cardiomyocytes ([…]); type: cell-based
T1 construct: gene Cacna1c; native channel in single rat tail main artery myocytes
T1 sequence (P22002 whole entry): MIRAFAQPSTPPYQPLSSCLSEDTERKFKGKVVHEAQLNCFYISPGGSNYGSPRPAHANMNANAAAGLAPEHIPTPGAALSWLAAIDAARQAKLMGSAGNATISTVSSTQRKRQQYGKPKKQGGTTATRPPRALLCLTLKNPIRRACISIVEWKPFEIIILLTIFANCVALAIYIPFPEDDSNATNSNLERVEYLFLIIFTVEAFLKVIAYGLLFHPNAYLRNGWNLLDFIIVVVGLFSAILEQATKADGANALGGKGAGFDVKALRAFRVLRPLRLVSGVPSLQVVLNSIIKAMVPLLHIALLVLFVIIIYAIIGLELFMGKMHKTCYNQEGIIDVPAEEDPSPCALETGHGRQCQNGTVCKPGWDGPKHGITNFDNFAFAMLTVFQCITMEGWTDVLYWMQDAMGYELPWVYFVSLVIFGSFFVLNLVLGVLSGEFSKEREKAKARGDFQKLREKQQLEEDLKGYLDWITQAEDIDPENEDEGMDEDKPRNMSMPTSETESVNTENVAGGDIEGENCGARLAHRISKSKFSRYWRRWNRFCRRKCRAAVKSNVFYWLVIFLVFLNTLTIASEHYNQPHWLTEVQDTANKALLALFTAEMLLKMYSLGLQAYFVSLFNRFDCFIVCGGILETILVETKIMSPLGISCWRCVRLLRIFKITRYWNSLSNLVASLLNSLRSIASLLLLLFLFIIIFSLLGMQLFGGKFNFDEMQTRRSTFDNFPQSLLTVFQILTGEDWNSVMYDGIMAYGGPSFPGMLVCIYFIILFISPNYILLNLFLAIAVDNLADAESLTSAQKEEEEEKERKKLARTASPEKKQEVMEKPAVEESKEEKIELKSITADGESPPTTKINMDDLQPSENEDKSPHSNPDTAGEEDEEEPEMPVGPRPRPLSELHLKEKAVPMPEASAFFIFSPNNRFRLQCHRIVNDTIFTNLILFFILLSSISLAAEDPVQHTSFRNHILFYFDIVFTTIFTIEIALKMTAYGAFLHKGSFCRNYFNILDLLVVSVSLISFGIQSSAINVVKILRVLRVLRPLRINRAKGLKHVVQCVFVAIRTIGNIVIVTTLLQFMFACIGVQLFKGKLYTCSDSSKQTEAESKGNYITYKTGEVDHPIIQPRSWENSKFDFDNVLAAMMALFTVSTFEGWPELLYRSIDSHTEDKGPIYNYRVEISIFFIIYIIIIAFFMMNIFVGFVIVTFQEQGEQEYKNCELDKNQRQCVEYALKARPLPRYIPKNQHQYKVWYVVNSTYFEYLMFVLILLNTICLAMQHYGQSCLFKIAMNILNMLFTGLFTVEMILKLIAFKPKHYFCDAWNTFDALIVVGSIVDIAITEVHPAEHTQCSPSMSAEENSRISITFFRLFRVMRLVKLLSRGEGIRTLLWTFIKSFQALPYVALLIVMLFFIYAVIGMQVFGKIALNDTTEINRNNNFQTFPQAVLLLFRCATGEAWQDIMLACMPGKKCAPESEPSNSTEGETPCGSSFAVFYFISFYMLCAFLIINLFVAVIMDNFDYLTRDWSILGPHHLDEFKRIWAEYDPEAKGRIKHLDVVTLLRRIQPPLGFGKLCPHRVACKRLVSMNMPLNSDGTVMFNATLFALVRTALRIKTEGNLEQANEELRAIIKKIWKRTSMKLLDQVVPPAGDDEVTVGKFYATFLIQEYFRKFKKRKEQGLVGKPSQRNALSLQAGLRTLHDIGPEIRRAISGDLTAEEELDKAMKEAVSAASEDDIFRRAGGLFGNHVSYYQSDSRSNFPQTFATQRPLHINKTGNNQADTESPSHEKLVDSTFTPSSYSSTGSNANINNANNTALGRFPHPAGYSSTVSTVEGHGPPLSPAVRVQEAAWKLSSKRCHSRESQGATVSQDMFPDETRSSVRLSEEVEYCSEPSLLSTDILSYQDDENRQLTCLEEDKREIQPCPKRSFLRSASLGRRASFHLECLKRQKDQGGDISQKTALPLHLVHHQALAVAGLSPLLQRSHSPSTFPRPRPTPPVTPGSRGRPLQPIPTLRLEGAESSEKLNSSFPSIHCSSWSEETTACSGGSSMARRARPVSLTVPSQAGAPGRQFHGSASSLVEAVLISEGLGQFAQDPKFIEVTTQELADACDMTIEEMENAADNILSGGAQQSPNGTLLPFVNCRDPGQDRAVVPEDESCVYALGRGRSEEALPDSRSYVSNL

[2] = biological target: T1, L-type Ca2+ channel (LTCC, Cav1.2); assay: whole-cell patch clamp, IBa(L); type: cell-based

**Q.** Which IC50 [1] does the source give for `O=c1onc2n1-c1ccc(Cl)cc1SC2(O)c1ccc(Br)cc1` (centres unmarked) [compound 30, 4-(4-Bromophenyl)-7-chloro-4-hydroxy-4H-[1,2,4]oxadiazolo[3,4-c][1,4]benzothiazin-1-one] here?
**A.** ~3 µM

**Q.** How did the IC50 [2] turn out when `CC1=CSC(OCCN2CCCCC2)(c2ccc(Br)cc2)c2noc(=O)n21` (centres unmarked) [compound 32, 8-(4-Bromophenyl)-5-methyl-8-(2-piperidin-1-ylethoxy)-8H-[1,2,4]oxadiazolo[3,4-c][1,4]thiazin-3-one] was run?
**A.** ~30 µM
